Like-named read-outs stand apart in the source and are kept apart here.
Tests used:
Format in all cases: biochemical
EphA2 = EphA2 (Homo sapiens, UniProt P29317); test: Eph receptor kinase activity assay (radiometric), EphA2; conditions: for remaining activity at 0.01 µM: 10 nM compound, read-out: EphA2 % act 10 nM; for remaining activity at 0.1 µM: 100 nM compound, read-out: EphA2 % act 100 nM; for remaining activity at 0.3 µM: 300 nM compound, read-out: EphA2 % act 300 nM; for remaining activity at 0.03 µM: 30 nM compound, read-out: EphA2 % act 30 nM
EphB3 = target: T1, EphB3 (Homo sapiens, UniProt P54753); test: EphB3 radiometric kinase activity assay (33P ATP filter binding); conditions: for remaining activity at 0.01 µM: 10 nM compound, read-out: EphB3 % act 10 nM; for remaining activity at 0.1 µM: 100 nM compound, read-out: EphB3 % act 100 nM; for remaining activity at 0.3 µM: 300 nM compound, read-out: EphB3 % act 300 nM; for remaining activity at 0.03 µM: 30 nM compound, read-out: EphB3 % act 30 nM
T1 sequence (P54753 34-998): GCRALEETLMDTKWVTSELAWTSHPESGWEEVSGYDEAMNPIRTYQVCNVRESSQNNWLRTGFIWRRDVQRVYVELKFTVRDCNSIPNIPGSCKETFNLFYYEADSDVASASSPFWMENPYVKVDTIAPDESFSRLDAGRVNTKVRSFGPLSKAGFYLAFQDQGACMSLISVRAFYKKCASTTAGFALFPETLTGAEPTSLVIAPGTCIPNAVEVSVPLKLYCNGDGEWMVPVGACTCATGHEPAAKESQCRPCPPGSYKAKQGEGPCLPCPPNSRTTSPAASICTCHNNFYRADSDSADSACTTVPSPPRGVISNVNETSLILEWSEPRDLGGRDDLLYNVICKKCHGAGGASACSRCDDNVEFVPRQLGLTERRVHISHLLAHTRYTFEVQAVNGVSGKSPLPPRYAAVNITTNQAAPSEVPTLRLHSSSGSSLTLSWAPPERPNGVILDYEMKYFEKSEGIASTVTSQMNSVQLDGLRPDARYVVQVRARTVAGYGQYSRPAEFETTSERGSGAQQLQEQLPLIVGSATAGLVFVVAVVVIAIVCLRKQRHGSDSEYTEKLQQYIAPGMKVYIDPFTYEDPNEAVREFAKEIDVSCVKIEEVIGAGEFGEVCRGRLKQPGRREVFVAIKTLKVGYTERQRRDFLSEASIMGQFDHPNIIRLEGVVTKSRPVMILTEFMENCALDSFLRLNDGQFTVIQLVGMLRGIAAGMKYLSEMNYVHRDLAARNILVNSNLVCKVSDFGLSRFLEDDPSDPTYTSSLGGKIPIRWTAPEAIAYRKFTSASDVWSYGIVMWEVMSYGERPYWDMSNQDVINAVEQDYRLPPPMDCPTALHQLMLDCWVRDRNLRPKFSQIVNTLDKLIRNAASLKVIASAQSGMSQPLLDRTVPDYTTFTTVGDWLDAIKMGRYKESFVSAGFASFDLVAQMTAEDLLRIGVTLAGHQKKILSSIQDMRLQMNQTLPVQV
Experimental: EphB3 radiometric kinase activity assay. To study the EphB3 kinase activity, a radioactive filter binding assay using 33P ATP was performed as described at the […] International Centre for Kinase profiling. […] The mix was harvested onto P81 filter plates and counts were read on a Topcount NXT.

EphB4 = target: T2, EphB4 (Homo sapiens, UniProt P54760); test: Eph receptor kinase activity assay (radiometric), EphB4; conditions: for remaining activity at 0.01 µM: 10 nM compound, read-out: EphB4 % act 10 nM; for remaining activity at 0.1 µM: 100 nM compound, read-out: EphB4 % act 100 nM; for remaining activity at 0.3 µM: 300 nM compound, read-out: EphB4 % act 300 nM; for remaining activity at 0.03 µM: 30 nM compound, read-out: EphB4 % act 30 nM
T2 sequence (P54760 16-987): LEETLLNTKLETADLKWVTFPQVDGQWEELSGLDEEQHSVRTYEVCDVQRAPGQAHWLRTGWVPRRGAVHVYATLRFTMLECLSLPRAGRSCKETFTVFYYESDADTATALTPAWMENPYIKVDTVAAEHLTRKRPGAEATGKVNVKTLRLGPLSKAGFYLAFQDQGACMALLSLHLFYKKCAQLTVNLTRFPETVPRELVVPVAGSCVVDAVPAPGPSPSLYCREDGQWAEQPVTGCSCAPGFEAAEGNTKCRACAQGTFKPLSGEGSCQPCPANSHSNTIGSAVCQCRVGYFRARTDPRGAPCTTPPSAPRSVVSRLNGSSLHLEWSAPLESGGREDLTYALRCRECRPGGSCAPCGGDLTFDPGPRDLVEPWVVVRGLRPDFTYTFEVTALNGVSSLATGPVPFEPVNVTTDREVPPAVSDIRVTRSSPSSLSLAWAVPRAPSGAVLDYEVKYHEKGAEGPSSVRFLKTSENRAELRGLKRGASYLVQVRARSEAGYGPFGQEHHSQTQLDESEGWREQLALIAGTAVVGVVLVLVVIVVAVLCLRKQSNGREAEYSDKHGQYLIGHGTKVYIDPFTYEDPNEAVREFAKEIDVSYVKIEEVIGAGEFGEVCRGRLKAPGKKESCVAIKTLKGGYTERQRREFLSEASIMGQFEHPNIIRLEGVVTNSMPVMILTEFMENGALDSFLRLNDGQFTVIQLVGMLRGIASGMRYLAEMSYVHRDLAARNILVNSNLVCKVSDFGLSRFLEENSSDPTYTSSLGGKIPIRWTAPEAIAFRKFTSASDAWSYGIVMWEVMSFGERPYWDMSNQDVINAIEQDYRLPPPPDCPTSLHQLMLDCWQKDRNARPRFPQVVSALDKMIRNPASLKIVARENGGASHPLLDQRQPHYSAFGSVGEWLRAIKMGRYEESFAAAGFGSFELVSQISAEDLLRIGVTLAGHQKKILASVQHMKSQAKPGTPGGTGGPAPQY

EphA4 = EphA4 (Homo sapiens, UniProt P54764); test: Eph receptor kinase activity assay (radiometric), EphA4; conditions: for remaining activity at 0.01 µM: 10 nM compound, read-out: EphA4 % act 10 nM; for remaining activity at 0.1 µM: 100 nM compound, read-out: EphA4 % act 100 nM; for remaining activity at 0.3 µM: 300 nM compound, read-out: EphA4 % act 300 nM; for remaining activity at 0.03 µM: 30 nM compound, read-out: EphA4 % act 30 nM
[1] = Example 14, read-out: IC50 (μM), EphB3 receptor kinase inhibitory activity

Chain of EphA4 (P54764 20-986): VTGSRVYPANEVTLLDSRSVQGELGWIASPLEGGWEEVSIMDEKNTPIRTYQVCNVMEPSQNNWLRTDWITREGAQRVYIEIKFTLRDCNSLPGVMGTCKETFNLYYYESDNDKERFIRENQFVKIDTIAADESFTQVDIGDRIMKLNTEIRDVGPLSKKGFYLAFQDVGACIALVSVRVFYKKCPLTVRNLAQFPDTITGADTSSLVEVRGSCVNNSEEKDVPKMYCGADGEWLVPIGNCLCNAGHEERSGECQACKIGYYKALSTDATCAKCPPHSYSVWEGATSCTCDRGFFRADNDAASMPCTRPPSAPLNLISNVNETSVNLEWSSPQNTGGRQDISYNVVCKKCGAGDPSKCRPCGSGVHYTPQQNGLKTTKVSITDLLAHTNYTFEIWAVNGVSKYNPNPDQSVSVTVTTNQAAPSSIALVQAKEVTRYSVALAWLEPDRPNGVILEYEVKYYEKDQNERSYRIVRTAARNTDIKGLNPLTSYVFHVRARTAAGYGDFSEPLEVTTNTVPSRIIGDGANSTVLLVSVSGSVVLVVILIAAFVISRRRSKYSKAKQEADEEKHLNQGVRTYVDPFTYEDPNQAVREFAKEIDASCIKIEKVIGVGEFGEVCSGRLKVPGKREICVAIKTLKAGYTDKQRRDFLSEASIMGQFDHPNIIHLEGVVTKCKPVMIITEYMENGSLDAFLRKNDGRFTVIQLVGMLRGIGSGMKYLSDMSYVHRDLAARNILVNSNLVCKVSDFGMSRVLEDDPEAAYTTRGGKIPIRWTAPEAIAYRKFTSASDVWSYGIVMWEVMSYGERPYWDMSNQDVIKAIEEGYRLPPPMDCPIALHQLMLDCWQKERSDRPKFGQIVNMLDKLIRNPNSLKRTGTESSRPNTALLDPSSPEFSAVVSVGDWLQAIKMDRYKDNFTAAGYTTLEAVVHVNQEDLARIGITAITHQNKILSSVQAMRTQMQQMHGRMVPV
Chain of EphA2 (P29317 24-976): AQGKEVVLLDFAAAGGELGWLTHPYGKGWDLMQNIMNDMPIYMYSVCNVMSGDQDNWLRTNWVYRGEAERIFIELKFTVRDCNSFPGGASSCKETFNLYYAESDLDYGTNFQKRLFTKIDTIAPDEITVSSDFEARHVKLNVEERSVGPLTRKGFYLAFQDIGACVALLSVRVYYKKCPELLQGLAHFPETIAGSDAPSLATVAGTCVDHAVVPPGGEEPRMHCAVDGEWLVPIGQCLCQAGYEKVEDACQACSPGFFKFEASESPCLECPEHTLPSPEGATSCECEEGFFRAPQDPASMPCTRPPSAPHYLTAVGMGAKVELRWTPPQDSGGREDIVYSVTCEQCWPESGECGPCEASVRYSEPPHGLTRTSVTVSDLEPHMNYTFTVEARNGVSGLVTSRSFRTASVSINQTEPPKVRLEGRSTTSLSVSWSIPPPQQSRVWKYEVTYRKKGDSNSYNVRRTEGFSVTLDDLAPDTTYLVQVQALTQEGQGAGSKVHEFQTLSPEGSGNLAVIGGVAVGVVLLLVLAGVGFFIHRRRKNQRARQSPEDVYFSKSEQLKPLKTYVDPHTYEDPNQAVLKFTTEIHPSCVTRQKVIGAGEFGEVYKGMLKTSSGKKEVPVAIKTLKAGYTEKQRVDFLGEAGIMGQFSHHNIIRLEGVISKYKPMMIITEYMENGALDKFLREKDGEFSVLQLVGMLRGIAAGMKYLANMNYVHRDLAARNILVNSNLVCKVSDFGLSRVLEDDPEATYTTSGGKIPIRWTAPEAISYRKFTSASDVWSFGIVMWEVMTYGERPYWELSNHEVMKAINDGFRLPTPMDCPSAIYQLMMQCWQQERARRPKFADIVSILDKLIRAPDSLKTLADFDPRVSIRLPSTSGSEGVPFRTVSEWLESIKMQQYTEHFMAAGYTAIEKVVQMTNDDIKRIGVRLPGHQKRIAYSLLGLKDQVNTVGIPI

remaining activity at 0.01 µM (EphA2) [%] | remaining activity at 0.1 µM (EphA2) [%] | remaining activity at 0.01 µM (EphB3) [%] | remaining activity at 0.1 µM (EphB3) [%] | remaining activity at 0.01 µM (EphB4) [%] | remaining activity at 0.1 µM (EphB4) [%] | remaining activity at 0.01 µM (EphA4) [%] | remaining activity at 0.1 µM (EphA4) [%] | remaining activity at 0.03 µM (EphA2) [%] | remaining activity at 0.03 µM (EphB3) [%] | remaining activity at 0.03 µM (EphB4) [%] | remaining activity at 0.03 µM (EphA4) [%] | IC50 (EphB3; [1]) [nM] | Structure (SMILES) | also measured
– | – | – | – | – | – | – | – | – | – | – | – | 84000 | O=C(Nc1cccc2c1CCO2)c1cnc2ccc(C3CCNCC3)cn12 [compound 124, N-(2,3-dihydrobenzofuran-4-yl)-6-(piperidin-4-yl)imidazo[1,2-a]pyridine-3-carboxamide] | –
71.3 | 45.1 | 116 | 78.3 | 87.2 | 76.3 | 80.3 | 72.8 | 61.2 | 90.3 | 75.9 | 74.2 | – | CN(C)CC(=O)N1CCC(c2ccc3ncc(C(=O)Nc4ccccc4Cl)n3c2)CC1 [compound 119, N-(2-Chlorophenyl)-6-(1-(dimethylglycyl)piperidin-4-yl)imidazo[1,2-a]pyridine-3-carboxamide] | –
– | – | – | – | – | – | – | – | – | – | – | – | 2900 | O=C(Nc1ncccc1Cl)c1cnc2ccc(C3CCNCC3)cn12 [compound 120, N-(3-chloropyridin-2-yl)-6-(piperidin-4-yl)imidazo[1,2-a]pyridine-3-carboxamide] | –
– | – | – | – | – | – | – | – | – | – | – | – | 89 | CN1CCC(c2ccc3ncc(C(=O)Nc4ccccc4Cl)n3c2)CC1 [compound 122, N-(2-chlorophenyl)-6-(1-methylpiperidin-4-yl)imidazo[1,2-a]pyridine-3-carboxamide] | –
– | – | – | – | – | – | – | – | – | – | – | – | 8100 | O=C(Nc1ccncc1Cl)c1cnc2ccc(C3CCNCC3)cn12 [compound 121, N-(3-chloropyridin-4-yl)-6-(piperidin-4-yl)imidazo[1,2-a]pyridine-3-carboxamide] | –
– | – | – | – | – | – | – | – | – | – | – | – | 6000 | O=C(Nc1cccc(F)c1Cl)c1cnc2ccc(C3CCNCC3)cn12 [compound 123, N-(2-chloro-3-fluorophenyl)-6-(piperidin-4-yl)imidazo[1,2-a]pyridine-3-carboxamide] | –

More lines, now with the values behind:

Structure (SMILES) | remaining activity at 0.01 µM (EphA2) [%] | remaining activity at 0.1 µM (EphA2) [%] | remaining activity at 0.01 µM (EphB3) [%] | remaining activity at 0.1 µM (EphB3) [%] | remaining activity at 0.01 µM (EphB4) [%] | remaining activity at 0.1 µM (EphB4) [%] | remaining activity at 0.01 µM (EphA4) [%] | remaining activity at 0.1 µM (EphA4) [%] | remaining activity at 0.03 µM (EphA2) [%] | remaining activity at 0.03 µM (EphB3) [%] | remaining activity at 0.03 µM (EphB4) [%] | remaining activity at 0.03 µM (EphA4) [%] | IC50 (EphB3; [1]) [nM] | also measured
NCc1cccc(-c2ccc3ncc(C(=O)Nc4ccccc4Cl)n3c2)c1 [compound 108, 6-(3-(Aminomethyl)phenyl)-N-(2-chlorophenyl)imidazo[1,2-a]pyridine-3-carboxamide] | 55 | 25 | 46 | 7 | 62 | 12 | 36 | 12 | – | – | – | – | – | remaining activity at 0.3 µM (EphA2): 11%; remaining activity at 0.3 µM (EphB3): 4%; remaining activity at 0.3 µM (EphB4): 2%; remaining activity at 0.3 µM (EphA4): 6%
NCc1ccc(-c2ccc3ncc(C(=O)Nc4ccccc4Cl)n3c2)cc1 [compound 109, 6-(4-(Aminomethyl)phenyl)-N-(2-chlorophenyl)imidazo[1,2-a]pyridine-3-carboxamide] | 77 | 11 | 22 | 6 | 22 | 6 | 24 | 8 | – | – | – | – | – | remaining activity at 0.3 µM (EphA2): 0%; remaining activity at 0.3 µM (EphB3): 4%; remaining activity at 0.3 µM (EphB4): 3%; remaining activity at 0.3 µM (EphA4): 5%
Cc1cccc(-c2ccc3ncc(C(=O)Nc4ccccc4Cl)n3c2)c1 [compound 105, N-(2-Chlorophenyl)-6-(3-methylphenyl)imidazo[1,2-a]pyridine-3-carboxamide] | 105 | 65.3 | 121 | 63.7 | 103 | 93.8 | 53.9 | 35.3 | 88.1 | 81.1 | 109 | 40.9 | – | –
COc1cccc(-c2ccc3ncc(C(=O)Nc4ccccc4Cl)n3c2)c1 [compound 103, N-(2-Chlorophenyl)-6-(3-methoxyphenyl)imidazo[1,2-a]pyridine-3-carboxamide] | 76 | 70.5 | 103 | 41 | 94.7 | 132 | 102 | 85.6 | 75.3 | 86.2 | 106 | 85.1 | – | –
COc1ccc(-c2ccc3ncc(C(=O)Nc4ccccc4Cl)n3c2)cc1 [compound 102, N-(2-Chlorophenyl)-6-(4-methoxyphenyl)imidazo[1,2-a]pyridine-3-carboxamide] | 79.9 | 59.6 | 92.4 | 88.6 | 104 | 98 | 80.4 | 83.9 | 69.4 | 92.7 | 103 | 74.1 | – | –
COc1ccccc1-c1ccc2ncc(C(=O)Nc3ccccc3Cl)n2c1 [compound 101, N-(2-Chlorophenyl)-6-(2-methoxyphenyl)imidazo[1,2-a]pyridine-3-carboxamide] | 67.7 | 77 | 80.9 | 52.7 | 98.8 | 82 | 100 | 74.5 | 65.4 | 62 | 101 | 80.2 | – | IC50 (EphA2; Table 2, Example 12): 315 nM; IC50 (EphB3; Table 2, Example 12, read-out: EphB3 (nM) IC50): 90 nM; IC50 (EphB4; Table 2, Example 12): 675 nM; IC50 (EphA4; Table 2, Example 12): 297 nM
